According to the supplement of paper PMC10307832:

How the values were obtained:
Assay in all cases: relative viability (nuclei count vs DMSO), 5 days (fraction); higher = more cells survive
Everolimus + Lapatinib = compound: CO[C@H]1C[C@@H]2CC[C@@H](C)[C@@](O)(O2)C(=O)C(=O)N2CCCC[C@H]2C(=O)O[C@H]([C@H](C)C[C@@H]2CC[C@@H](OCCO)[C@H](OC)C2)CC(=O)[C@H](C)/C=C(\C)[C@@H](O)[C@@H](OC)C(=O)[C@H](C)C[C@H](C)/C=C/C=C/C=C/1C [Everolimus] + CS(=O)(=O)CCNCc1ccc(-c2ccc3ncnc(Nc4ccc(OCc5cccc(F)c5)c(Cl)c4)c3c2)o1 [Lapatinib] (partner 2 µM)
How it was run: (§1)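 Values are medians from duplicate plates. Each reflects relative viability, defined as the nuclei count of treated wells over that of vehicle wells. Lung cancer cell lines in 1536-well plates were pin-tool dosed one day after seeding with one drug alone or with a fixed anchor-drug dose plus five library-drug doses (not always all listed) in √10 steps, then fixed, stained and imaged at 4× after 5 days.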

Everolimus + Crizotinib = compound: CO[C@H]1C[C@@H]2CC[C@@H](C)[C@@](O)(O2)C(=O)C(=O)N2CCCC[C@H]2C(=O)O[C@H]([C@H](C)C[C@@H]2CC[C@@H](OCCO)[C@H](OC)C2)CC(=O)[C@H](C)/C=C(\C)[C@@H](O)[C@@H](OC)C(=O)[C@H](C)C[C@H](C)/C=C/C=C/C=C/1C [Everolimus] + C[C@@H](Oc1cc(-c2cnn(C3CCNCC3)c2)cnc1N)c1c(Cl)ccc(F)c1Cl [Crizotinib] (partner 1 µM)
How it was run: as §1

Everolimus + Dasatinib = compound: CO[C@H]1C[C@@H]2CC[C@@H](C)[C@@](O)(O2)C(=O)C(=O)N2CCCC[C@H]2C(=O)O[C@H]([C@H](C)C[C@@H]2CC[C@@H](OCCO)[C@H](OC)C2)CC(=O)[C@H](C)/C=C(\C)[C@@H](O)[C@@H](OC)C(=O)[C@H](C)C[C@H](C)/C=C/C=C/C=C/1C [Everolimus] + Cc1nc(Nc2ncc(C(=O)Nc3c(C)cccc3Cl)s2)cc(N2CCN(CCO)CC2)n1 [Dasatinib] (partner 0.075 µM)
How it was run: as §1

Everolimus + Pemetrexed = compound: CO[C@H]1C[C@@H]2CC[C@@H](C)[C@@](O)(O2)C(=O)C(=O)N2CCCC[C@H]2C(=O)O[C@H]([C@H](C)C[C@@H]2CC[C@@H](OCCO)[C@H](OC)C2)CC(=O)[C@H](C)/C=C(\C)[C@@H](O)[C@@H](OC)C(=O)[C@H](C)C[C@H](C)/C=C/C=C/C=C/1C [Everolimus] + Nc1nc2[nH]cc(CCc3ccc(C(=O)N[C@@H](CCC(=O)O)C(=O)O)cc3)c2c(=O)[nH]1 [Pemetrexed] (partner 0.2 µM)
How it was run: as §1

| Cell Line | relative viability (Everolimus + Lapatinib; first compound 0.01 µM) | relative viability (Everolimus + Lapatinib; first compound 0.03162 µM) | relative viability (Everolimus + Lapatinib; first compound 0.1 µM) | relative viability (Everolimus + Lapatinib; first compound 0.3162 µM) | relative viability (Everolimus + Lapatinib; first compound 1 µM) | relative viability (Everolimus + Crizotinib; first compound 0.01 µM) | relative viability (Everolimus + Crizotinib; first compound 0.03162 µM) | relative viability (Everolimus + Crizotinib; first compound 0.1 µM) | relative viability (Everolimus + Crizotinib; first compound 0.3162 µM) | relative viability (Everolimus + Crizotinib; first compound 1 µM) | relative viability (Everolimus + Dasatinib; first compound 0.01 µM) | relative viability (Everolimus + Dasatinib; first compound 0.03162 µM) | relative viability (Everolimus + Dasatinib; first compound 0.1 µM) | relative viability (Everolimus + Dasatinib; first compound 0.3162 µM) | relative viability (Everolimus + Dasatinib; first compound 1 µM) | relative viability (Everolimus + Pemetrexed; first compound 0.01 µM) | relative viability (Everolimus + Pemetrexed; first compound 0.03162 µM) | relative viability (Everolimus + Pemetrexed; first compound 0.1 µM) | relative viability (Everolimus + Pemetrexed; first compound 0.3162 µM) | relative viability (Everolimus + Pemetrexed; first compound 1 µM) |
| --- | --- | --- | --- | --- | --- | --- | --- | --- | --- | --- | --- | --- | --- | --- | --- | --- | --- | --- | --- | --- |
| NCI-H2170 | 0.214 | 0.242 | 0.228 | 0.222 | 0.247 | 0.59 | 0.587 | 0.455 | 0.537 | 0.49 | 0.366 | 0.292 | 0.312 | 0.302 | 0.262 | 0.259 | 0.26 | 0.248 | 0.271 | 0.257 |
| EMC-BAC-2 | 0.675 | 0.563 | 0.49 | 0.571 | 0.517 | 0.562 | 0.546 | 0.485 | 0.504 | 0.535 | 0.24 | 0.242 | 0.189 | 0.219 | 0.278 | 0.469 | 0.491 | 0.445 | 0.45 | 0.491 |
| NCI-H23 | 0.736 | 0.685 | 0.491 | 0.695 | 0.693 | 0.486 | 0.33 | 0.288 | 0.398 | 0.359 | 0.406 | 0.371 | 0.386 | 0.391 | 0.484 | 0.55 | 0.398 | 0.607 | 0.535 | 0.472 |
| RERF-LC-KJ | 0.636 | 0.597 | 0.503 | 0.487 | 0.486 | 0.804 | 0.627 | 0.683 | 0.667 | 0.567 | 0.589 | 0.573 | 0.483 | 0.549 | 0.457 | 0.468 | 0.489 | 0.498 | 0.426 | 0.457 |
| NCI-H358 | 0.309 | 0.338 | 0.377 | 0.345 | 0.295 | 0.528 | 0.592 | 0.509 | 0.542 | 0.429 | 0.115 | 0.138 | 0.133 | 0.0942 | 0.114 | 0.173 | 0.162 | 0.162 | 0.158 | 0.153 |
| LC-2-ad | 0.924 | 0.874 | 0.941 | 0.931 | 1.08 | 0.542 | 0.48 | 0.384 | 0.449 | 0.417 | 0.544 | 0.51 | 0.515 | 0.427 | 0.505 | 0.275 | 0.301 | 0.286 | 0.291 | 0.253 |
| HCC-15 | 0.899 | 0.899 | 0.881 | 0.981 | 0.871 | 0.931 | 0.887 | 0.791 | 0.829 | 0.75 | 0.667 | 0.546 | 0.417 | 0.561 | 0.489 | 0.222 | 0.273 | 0.23 | 0.231 | 0.222 |
